Experimental data: ChEMBL document CHEMBL3785013, “Novel morpholinoquinoline nucleus clubbed with pyrazoline scaffolds: Synthesis, antibacterial, antitubercular and antimalarial activities” (Eur J Med Chem, 2016)
In brackets after ≈: the same amount, converted by molar mass.

Tests used:
Bacillus subtilis = assay: Antibacterial activity against Bacillus subtilis MTCC 441 after 24 to 48 hrs by broth microdilution method; type: functional
[1] = test system: Mycobacterium tuberculosis; assay: Antituberculosis activity against Mycobacterium tuberculosis H37Rv at 250 ug/ml incubated for 24 hrs measured after 2 to 4 weeks by Lowensteine-Jensen method; type: functional
Plasmodium falciparum = assay: Antimalarial activity against Plasmodium falciparum after 48 hrs; type: functional, organism-based
[2] = test system: Mycobacterium tuberculosis; assay: Antituberculosis activity against Mycobacterium tuberculosis H37Rv after 2 to 4 weeks by Lowensteine-Jensen method; type: functional
Salmonella typhi = assay: Antibacterial activity against Salmonella typhi MTCC 98 after 24 to 48 hrs by broth microdilution method; type: functional, Salmonella enterica subsp. enterica serovar Typhi; settings: Salmonella enterica
Streptococcus pneumoniae = assay: Antibacterial activity against Streptococcus pneumoniae MTCC 1936 after 24 to 48 hrs by broth microdilution method; type: functional
Vibrio cholerae = assay: Antibacterial activity against Vibrio cholerae MTCC 3906 after 24 to 48 hrs by broth microdilution method; type: functional
Escherichia coli = assay: Antibacterial activity against Escherichia coli MTCC 443 after 24 to 48 hrs by broth microdilution method; type: functional
Aspergillus fumigatus = assay: Antifungal activity against Aspergillus fumigatus MTCC 3008 after 24 to 48 hrs by broth microdilution method; type: functional
Candida albicans = assay: Antifungal activity against Candida albicans MTCC 227 after 24 to 48 hrs by broth microdilution method; type: functional
Clostridium tetani = assay: Antibacterial activity against Clostridium tetani MTCC 449 after 24 to 48 hrs by broth microdilution method; type: functional
[3] = test system: Schizosaccharomyces pombe; assay: Cytotoxicity against Schizosaccharomyces pombe at 2.5 to 12.5 ug/ml after 17 hrs by trypan blue exclusion method; type: organism-based; settings: in vivo

| Compound | MIC (Bacillus subtilis) | inhibition at 250 µg/mL [1] | IC50 (Plasmodium falciparum) | MIC [2] | MIC (Salmonella typhi) | MIC (Streptococcus pneumoniae) | MIC (Vibrio cholerae) | MIC (Escherichia coli) | MIC (Aspergillus fumigatus) | MIC (Candida albicans) | MIC (Clostridium tetani) | Activity [3] |
| --- | --- | --- | --- | --- | --- | --- | --- | --- | --- | --- | --- | --- |
| CC(=O)N1N=C(c2ccc(Cl)cc2)CC1c1cc2ccccc2nc1N1CCOCC1 (stereo not drawn) | 229 µM (≈ 99.6 µg/mL) | 96% | 2870 nM | 143 µM (≈ 62.2 µg/mL) | 574 µM (≈ 250 µg/mL) | 1150 µM (≈ 500 µg/mL) | 229 µM (≈ 99.6 µg/mL) | 229 µM (≈ 99.6 µg/mL) | 1150 µM (≈ 500 µg/mL) | 1150 µM (≈ 500 µg/mL) | 149 µM (≈ 64.8 µg/mL) |  |
| CC(=O)N1N=C(c2ccc(Br)cc2)CC1c1cc2ccccc2nc1N1CCOCC1 (stereo not drawn) | 1040 µM (≈ 500 µg/mL) | 29% | 18 nM |  | 1040 µM (≈ 500 µg/mL) | 417 µM (≈ 200 µg/mL) | 1040 µM (≈ 500 µg/mL) | 521 µM (≈ 250 µg/mL) | 208 µM (≈ 99.7 µg/mL) | 2090 µM (≈ 1000 µg/mL) | 208 µM (≈ 99.7 µg/mL) | Toxic |
| CO[C@H]1/C=C/O[C@@]2(C)Oc3c(C)c(O)c4c(O)c(c(/C=N/N5CCN(C)CC5)c(O)c4c3C2=O)NC(=O)/C(C)=C\C=C\[C@H](C)[C@H](O)[C@@H](C)[C@@H](O)[C@@H](C)[C@H](OC(C)=O)[C@@H]1C [RIFAMPIN] |  | 98% |  | 48 µM (≈ 39.5 µg/mL) |  |  |  |  |  |  |  |  |
| NNC(=O)c1ccncc1 [ISONIAZID] |  |  |  | 1 µM (≈ 0.137 µg/mL) |  |  |  |  |  |  |  |  |
| CC1(C)S[C@@H]2[C@H](NC(=O)[C@H](N)c3ccccc3)C(=O)N2[C@H]1C(=O)O [AMPICILLIN] | 715 µM (≈ 250 µg/mL) |  |  |  | 286 µM (≈ 99.9 µg/mL) | 286 µM (≈ 99.9 µg/mL) | 286 µM (≈ 99.9 µg/mL) | 286 µM (≈ 99.9 µg/mL) |  |  | 715 µM (≈ 250 µg/mL) |  |
| O=CN1N=C(c2ccc(Br)cc2)CC1c1cc2ccccc2nc1N1CCOCC1 (stereo not drawn) | 214 µM (≈ 99.6 µg/mL) | 32% | 40 nM |  | 134 µM (≈ 62.4 µg/mL) | 537 µM (≈ 250 µg/mL) | 214 µM (≈ 99.6 µg/mL) | 214 µM (≈ 99.6 µg/mL) | 1070 µM (≈ 500 µg/mL) | 537 µM (≈ 250 µg/mL) | 429 µM (≈ 200 µg/mL) | Non-toxic |
| O=CN1N=C(c2ccc(F)cc2)CC1c1cc2ccccc2nc1N1CCOCC1 (stereo not drawn) | 154 µM (≈ 62.3 µg/mL) | 93% | 1040 nM | 247 µM (≈ 99.9 µg/mL) | 1240 µM (≈ 500 µg/mL) | 247 µM (≈ 99.9 µg/mL) | 618 µM (≈ 250 µg/mL) | 494 µM (≈ 200 µg/mL) | > 2470 µM | 2470 µM (≈ 1000 µg/mL) | 1240 µM (≈ 500 µg/mL) |  |
| Fc1ccc(N2N=C(c3ccc(Cl)cc3)CC2c2cc3ccccc3nc2N2CCOCC2)cc1 (stereo not drawn) | 410 µM (≈ 200 µg/mL) | 24% | 1790 nM |  | 410 µM (≈ 200 µg/mL) | 1030 µM (≈ 500 µg/mL) | 513 µM (≈ 250 µg/mL) | 205 µM (≈ 99.8 µg/mL) | 205 µM (≈ 99.8 µg/mL) | 2050 µM (≈ 1000 µg/mL) | 1030 µM (≈ 500 µg/mL) |  |
| NC(=S)N1N=C(c2ccc(Cl)cc2)CC1c1cc2ccccc2nc1N1CCOCC1 (stereo not drawn) | 221 µM (≈ 99.9 µg/mL) | 45% | 4650 nM |  | 553 µM (≈ 250 µg/mL) | 553 µM (≈ 250 µg/mL) | 221 µM (≈ 99.9 µg/mL) | 442 µM (≈ 200 µg/mL) | 221 µM (≈ 99.9 µg/mL) | 2210 µM (≈ 1000 µg/mL) | 221 µM (≈ 99.9 µg/mL) |  |
| CC(=O)N1N=C(c2ccc(F)cc2)CC1c1cc2ccccc2nc1N1CCOCC1 (stereo not drawn) | 597 µM (≈ 250 µg/mL) | 32% | 1670 nM |  | 238 µM (≈ 99.6 µg/mL) | 238 µM (≈ 99.6 µg/mL) | 597 µM (≈ 250 µg/mL) | 597 µM (≈ 250 µg/mL) | 1190 µM (≈ 500 µg/mL) | 597 µM (≈ 250 µg/mL) | 238 µM (≈ 99.6 µg/mL) |  |
| COc1ccc(C2=NN(c3ccc(F)cc3)C(c3cc4ccccc4nc3N3CCOCC3)C2)cc1 (stereo not drawn) | 518 µM (≈ 250 µg/mL) | 33% | 51 nM |  | 207 µM (≈ 99.9 µg/mL) | 259 µM (≈ 125 µg/mL) | 518 µM (≈ 250 µg/mL) | 414 µM (≈ 200 µg/mL) | 207 µM (≈ 99.9 µg/mL) | 518 µM (≈ 250 µg/mL) | 1040 µM (≈ 500 µg/mL) | Non-toxic |
| COC1=CC(=O)C[C@@H](C)[C@]12Oc1c(Cl)c(OC)cc(OC)c1C2=O [GRISEOFULVIN] |  |  |  |  |  |  |  |  | 283 µM (≈ 99.8 µg/mL) | 1150 µM (≈ 405 µg/mL) |  |  |
| O=C(O)c1cn(C2CC2)c2cc(N3CCNCC3)c(F)cc2c1=O [CIPROFLOXACIN] | 150 µM (≈ 49.7 µg/mL) |  |  |  | 75 µM (≈ 24.9 µg/mL) | 150 µM (≈ 49.7 µg/mL) | 75 µM (≈ 24.9 µg/mL) | 75 µM (≈ 24.9 µg/mL) |  |  |  |  |
| CCn1cc(C(=O)O)c(=O)c2cc(F)c(N3CCNCC3)cc21 [NORFLOXACIN] | 310 µM (≈ 99 µg/mL) |  |  |  | 31 µM (≈ 9.9 µg/mL) | 31 µM (≈ 9.9 µg/mL) | 31 µM (≈ 9.9 µg/mL) | 31 µM (≈ 9.9 µg/mL) |  |  | 313 µM (≈ 100 µg/mL) |  |
| COc1ccc(C2=NN(C(C)=O)C(c3cc4ccccc4nc3N3CCOCC3)C2)cc1 (stereo not drawn) | 232 µM (≈ 99.9 µg/mL) | 45% | 34 nM |  | 1160 µM (≈ 500 µg/mL) | 145 µM (≈ 62.4 µg/mL) | 1160 µM (≈ 500 µg/mL) | 232 µM (≈ 99.9 µg/mL) | 1160 µM (≈ 500 µg/mL) | 2320 µM (≈ 1000 µg/mL) | 1160 µM (≈ 500 µg/mL) | Toxic |
| C=C[C@H]1CN2CC[C@H]1C[C@H]2[C@H](O)c1ccnc2ccc(OC)cc12 [QUININE] |  |  | 826 nM |  |  |  |  |  |  |  |  |  |
| NYSTATIN |  |  |  |  |  |  |  |  | 107 µM | 107 µM |  |  |
| COc1ccc(C2=NN(C=O)C(c3cc4ccccc4nc3N3CCOCC3)C2)cc1 (stereo not drawn) | 600 µM (≈ 250 µg/mL) | 36% | 1870 nM |  | 240 µM (≈ 100 µg/mL) | 240 µM (≈ 100 µg/mL) | 480 µM (≈ 200 µg/mL) | 480 µM (≈ 200 µg/mL) | 2400 µM (≈ 1000 µg/mL) | 1200 µM (≈ 500 µg/mL) | 1200 µM (≈ 500 µg/mL) |  |
| Fc1ccc(C2=NN(c3ccc(F)cc3)C(c3cc4ccccc4nc3N3CCOCC3)C2)cc1 (stereo not drawn) | 212 µM (≈ 99.8 µg/mL) | 48% | 3420 nM |  | 212 µM (≈ 99.8 µg/mL) | 265 µM (≈ 125 µg/mL) | 132 µM (≈ 62.1 µg/mL) | 265 µM (≈ 125 µg/mL) | 2120 µM (≈ 1000 µg/mL) | 212 µM (≈ 99.8 µg/mL) | 132 µM (≈ 62.1 µg/mL) |  |
| NC(=S)N1N=C(c2ccc(F)cc2)CC1c1cc2ccccc2nc1N1CCOCC1 (stereo not drawn) | 1150 µM (≈ 500 µg/mL) | 54% | 1840 nM |  | 143 µM (≈ 62.3 µg/mL) | 229 µM (≈ 99.7 µg/mL) | 574 µM (≈ 250 µg/mL) | 574 µM (≈ 250 µg/mL) | 1150 µM (≈ 500 µg/mL) | 229 µM (≈ 99.7 µg/mL) | 1150 µM (≈ 500 µg/mL) |  |
| COc1ccc(C2=NN(C(N)=S)C(c3cc4ccccc4nc3N3CCOCC3)C2)cc1 (stereo not drawn) | 446 µM (≈ 200 µg/mL) | 63% | 3240 nM |  | 223 µM (≈ 99.8 µg/mL) | 223 µM (≈ 99.8 µg/mL) | 558 µM (≈ 250 µg/mL) | 558 µM (≈ 250 µg/mL) | 223 µM (≈ 99.8 µg/mL) | 1120 µM (≈ 500 µg/mL) | 446 µM (≈ 200 µg/mL) |  |
| Fc1ccc(N2N=C(c3ccc(Br)cc3)CC2c2cc3ccccc3nc2N2CCOCC2)cc1 (stereo not drawn) | 940 µM (≈ 500 µg/mL) | 95% | 15 nM | 47 µM (≈ 25 µg/mL) | 376 µM (≈ 200 µg/mL) | 188 µM (≈ 99.9 µg/mL) | 470 µM (≈ 250 µg/mL) | 117 µM (≈ 62.2 µg/mL) | 940 µM (≈ 500 µg/mL) | 470 µM (≈ 250 µg/mL) | 188 µM (≈ 99.9 µg/mL) | Non-toxic |
| O=CN1N=C(c2ccc(Cl)cc2)CC1c1cc2ccccc2nc1N1CCOCC1 (stereo not drawn) | 1190 µM (≈ 500 µg/mL) | 94% | 28 nM | 59 µM (≈ 24.8 µg/mL) | 1190 µM (≈ 500 µg/mL) | 148 µM (≈ 62.3 µg/mL) | 237 µM (≈ 99.8 µg/mL) | 237 µM (≈ 99.8 µg/mL) | > 2380 µM | 2380 µM (≈ 1000 µg/mL) | 475 µM (≈ 200 µg/mL) | Toxic |
| NC(=S)N1N=C(c2ccc(Br)cc2)CC1c1cc2ccccc2nc1N1CCOCC1 (stereo not drawn) | 402 µM (≈ 200 µg/mL) | 90% | 44 nM | 201 µM (≈ 99.8 µg/mL) | 402 µM (≈ 200 µg/mL) | 402 µM (≈ 200 µg/mL) | 201 µM (≈ 99.8 µg/mL) | 201 µM (≈ 99.8 µg/mL) | 1010 µM (≈ 500 µg/mL) | > 2010 µM | 201 µM (≈ 99.8 µg/mL) | Non-toxic |
| O=C(N[C@H](CO)[C@H](O)c1ccc([N+](=O)[O-])cc1)C(Cl)Cl [CHLORAMPHENICOL] | 154 µM (≈ 49.8 µg/mL) |  |  |  | 154 µM (≈ 49.8 µg/mL) | 154 µM (≈ 49.8 µg/mL) | 154 µM (≈ 49.8 µg/mL) | 154 µM (≈ 49.8 µg/mL) |  |  | 154 µM (≈ 49.8 µg/mL) |  |
